Experimental data from patent EP0280051A1, “ACV synthetase” (QUEEN'S UNIVERSITY AT KINGSTON, priority 1987, dated 1988).

Biological target: ACV-synthetase of C. acremonium C-10 (Hapsidospora chrysogena, UniProt P25464)
Experiment: Cell-free ACV synthetase reaction (desalted extract, HPLC analysis after monobromobimane derivatization)
Assay type: biochemical
Conditions: for inhibition of ACV-synthetase: qualitative, concentration not clearly stated for the inhibitors
Protocol: a Typical reaction mixtures contained desalted extract (about 0.5 mg protein), 20 µg cycloheximide, 10 mM ATP, 10 mM MgC12, 5 mM dithiothreitol, 5 mM L-α-aminoadipic acid, I mM L -cysteine and 5 mM L -valine, all components dissolved in 100 µl of 100 mM MOPS/KOH at pH 7.5. Reactions were performed at 25°C in a water bath shaker, and terminated by addition of 25 µl of 20% trichloroacetic acid. Precipitated protein was removed by centrifugation, and the supernatant stored at -20°C prior to analysis. (MOPS = 3-[N-Morpholino] propanesulfonic acid, - a biological buffer available from Sigma Chemical Co.
Mycelia from Example 1 were washed twice with cold 50 mM Tris/HC1 buffer (pH 7.2) containing 100 mM KC1. After centrifugation, the pellet was resuspended in a volume of cold 100 mM MOPS/KOH buffer (pH 7.2) equal to twice the pellet volume; the buffer also contained 50 mM KCI, 30 mM 2-mercaptoethanol, 20 mM EDTA and 50% glycerol (v/v). The cells were disrupted in a French Press (Aminco) at 8000 psi and the debris removed by centrifugation (30,000×g, 15 min). The clear yellow supernatant fluid was stored at -20°C or immediately desalted by passage through a Sephadex G-15 column using an elution buffer of 100 mM MOPSiKOH (pH 7.2) containing 50 mM KCI and 20% glycerol (v/v). The resulting solution contained 10 to 20 mg protein per ml and was either used immediately for the cell-free reaction or frozen for future use.
Stored frozen extract (from Example 2) was thawed, desalted over Sephadex eG-15, and eluted with 100 mM MOPS/KOH at pH 7.5. Typical reaction mixtures contained desalted extract (about 0.5 mg protein), 20 µg cycloheximide, 10 mM ATP, 10 mM MgCI2, 5 mM dithiothreitol, 5 mM L-α-aminoadipic acid, 1 mM L -cysteine and 5 mM L-valine, all components dissolved in 100 µl of 100 mM MOPS/KOH at pH 7.5. Reactions were performed at 25°C in a water bath shaker, and terminated by addition of 25 µl of 20% trichloroacetic acid. Precipitated protein was removed by centrifugation, and the supernatant stored at -20°C prior to analysis.
Analyses were performed following derivatization with monobromobimane: to a 20 I sample were added successively 2 µl of 3M KOH, 4 µl of 0.03M dithiothreitol in 2M NH4HCO3 (pH 8.2), and 4 µl of 0.3M monobromobimane in acetonitrile. This mixture was stored for 15 min. in the dark, and then extracted with methylene chloride (4 × 200 I). Five µl of 1 M citric acid (pH 2.2) was added, and 25 µl of this final solution was injected into the HPLC apparatus.
The HPLC analysis employed two solutions, viz., A, 880 mg for pentanesulfonic acid, 2.5 ml of acetic acid in I liter H20 (pH 3.6); B, 880 mg of pentanesulfonic acid, 2.5 ml acetic acid, 50 ml water and 950 ml acetonitrile. […]

Sequence of ACV-synthetase of C. acremonium C-10 (P25464 whole entry): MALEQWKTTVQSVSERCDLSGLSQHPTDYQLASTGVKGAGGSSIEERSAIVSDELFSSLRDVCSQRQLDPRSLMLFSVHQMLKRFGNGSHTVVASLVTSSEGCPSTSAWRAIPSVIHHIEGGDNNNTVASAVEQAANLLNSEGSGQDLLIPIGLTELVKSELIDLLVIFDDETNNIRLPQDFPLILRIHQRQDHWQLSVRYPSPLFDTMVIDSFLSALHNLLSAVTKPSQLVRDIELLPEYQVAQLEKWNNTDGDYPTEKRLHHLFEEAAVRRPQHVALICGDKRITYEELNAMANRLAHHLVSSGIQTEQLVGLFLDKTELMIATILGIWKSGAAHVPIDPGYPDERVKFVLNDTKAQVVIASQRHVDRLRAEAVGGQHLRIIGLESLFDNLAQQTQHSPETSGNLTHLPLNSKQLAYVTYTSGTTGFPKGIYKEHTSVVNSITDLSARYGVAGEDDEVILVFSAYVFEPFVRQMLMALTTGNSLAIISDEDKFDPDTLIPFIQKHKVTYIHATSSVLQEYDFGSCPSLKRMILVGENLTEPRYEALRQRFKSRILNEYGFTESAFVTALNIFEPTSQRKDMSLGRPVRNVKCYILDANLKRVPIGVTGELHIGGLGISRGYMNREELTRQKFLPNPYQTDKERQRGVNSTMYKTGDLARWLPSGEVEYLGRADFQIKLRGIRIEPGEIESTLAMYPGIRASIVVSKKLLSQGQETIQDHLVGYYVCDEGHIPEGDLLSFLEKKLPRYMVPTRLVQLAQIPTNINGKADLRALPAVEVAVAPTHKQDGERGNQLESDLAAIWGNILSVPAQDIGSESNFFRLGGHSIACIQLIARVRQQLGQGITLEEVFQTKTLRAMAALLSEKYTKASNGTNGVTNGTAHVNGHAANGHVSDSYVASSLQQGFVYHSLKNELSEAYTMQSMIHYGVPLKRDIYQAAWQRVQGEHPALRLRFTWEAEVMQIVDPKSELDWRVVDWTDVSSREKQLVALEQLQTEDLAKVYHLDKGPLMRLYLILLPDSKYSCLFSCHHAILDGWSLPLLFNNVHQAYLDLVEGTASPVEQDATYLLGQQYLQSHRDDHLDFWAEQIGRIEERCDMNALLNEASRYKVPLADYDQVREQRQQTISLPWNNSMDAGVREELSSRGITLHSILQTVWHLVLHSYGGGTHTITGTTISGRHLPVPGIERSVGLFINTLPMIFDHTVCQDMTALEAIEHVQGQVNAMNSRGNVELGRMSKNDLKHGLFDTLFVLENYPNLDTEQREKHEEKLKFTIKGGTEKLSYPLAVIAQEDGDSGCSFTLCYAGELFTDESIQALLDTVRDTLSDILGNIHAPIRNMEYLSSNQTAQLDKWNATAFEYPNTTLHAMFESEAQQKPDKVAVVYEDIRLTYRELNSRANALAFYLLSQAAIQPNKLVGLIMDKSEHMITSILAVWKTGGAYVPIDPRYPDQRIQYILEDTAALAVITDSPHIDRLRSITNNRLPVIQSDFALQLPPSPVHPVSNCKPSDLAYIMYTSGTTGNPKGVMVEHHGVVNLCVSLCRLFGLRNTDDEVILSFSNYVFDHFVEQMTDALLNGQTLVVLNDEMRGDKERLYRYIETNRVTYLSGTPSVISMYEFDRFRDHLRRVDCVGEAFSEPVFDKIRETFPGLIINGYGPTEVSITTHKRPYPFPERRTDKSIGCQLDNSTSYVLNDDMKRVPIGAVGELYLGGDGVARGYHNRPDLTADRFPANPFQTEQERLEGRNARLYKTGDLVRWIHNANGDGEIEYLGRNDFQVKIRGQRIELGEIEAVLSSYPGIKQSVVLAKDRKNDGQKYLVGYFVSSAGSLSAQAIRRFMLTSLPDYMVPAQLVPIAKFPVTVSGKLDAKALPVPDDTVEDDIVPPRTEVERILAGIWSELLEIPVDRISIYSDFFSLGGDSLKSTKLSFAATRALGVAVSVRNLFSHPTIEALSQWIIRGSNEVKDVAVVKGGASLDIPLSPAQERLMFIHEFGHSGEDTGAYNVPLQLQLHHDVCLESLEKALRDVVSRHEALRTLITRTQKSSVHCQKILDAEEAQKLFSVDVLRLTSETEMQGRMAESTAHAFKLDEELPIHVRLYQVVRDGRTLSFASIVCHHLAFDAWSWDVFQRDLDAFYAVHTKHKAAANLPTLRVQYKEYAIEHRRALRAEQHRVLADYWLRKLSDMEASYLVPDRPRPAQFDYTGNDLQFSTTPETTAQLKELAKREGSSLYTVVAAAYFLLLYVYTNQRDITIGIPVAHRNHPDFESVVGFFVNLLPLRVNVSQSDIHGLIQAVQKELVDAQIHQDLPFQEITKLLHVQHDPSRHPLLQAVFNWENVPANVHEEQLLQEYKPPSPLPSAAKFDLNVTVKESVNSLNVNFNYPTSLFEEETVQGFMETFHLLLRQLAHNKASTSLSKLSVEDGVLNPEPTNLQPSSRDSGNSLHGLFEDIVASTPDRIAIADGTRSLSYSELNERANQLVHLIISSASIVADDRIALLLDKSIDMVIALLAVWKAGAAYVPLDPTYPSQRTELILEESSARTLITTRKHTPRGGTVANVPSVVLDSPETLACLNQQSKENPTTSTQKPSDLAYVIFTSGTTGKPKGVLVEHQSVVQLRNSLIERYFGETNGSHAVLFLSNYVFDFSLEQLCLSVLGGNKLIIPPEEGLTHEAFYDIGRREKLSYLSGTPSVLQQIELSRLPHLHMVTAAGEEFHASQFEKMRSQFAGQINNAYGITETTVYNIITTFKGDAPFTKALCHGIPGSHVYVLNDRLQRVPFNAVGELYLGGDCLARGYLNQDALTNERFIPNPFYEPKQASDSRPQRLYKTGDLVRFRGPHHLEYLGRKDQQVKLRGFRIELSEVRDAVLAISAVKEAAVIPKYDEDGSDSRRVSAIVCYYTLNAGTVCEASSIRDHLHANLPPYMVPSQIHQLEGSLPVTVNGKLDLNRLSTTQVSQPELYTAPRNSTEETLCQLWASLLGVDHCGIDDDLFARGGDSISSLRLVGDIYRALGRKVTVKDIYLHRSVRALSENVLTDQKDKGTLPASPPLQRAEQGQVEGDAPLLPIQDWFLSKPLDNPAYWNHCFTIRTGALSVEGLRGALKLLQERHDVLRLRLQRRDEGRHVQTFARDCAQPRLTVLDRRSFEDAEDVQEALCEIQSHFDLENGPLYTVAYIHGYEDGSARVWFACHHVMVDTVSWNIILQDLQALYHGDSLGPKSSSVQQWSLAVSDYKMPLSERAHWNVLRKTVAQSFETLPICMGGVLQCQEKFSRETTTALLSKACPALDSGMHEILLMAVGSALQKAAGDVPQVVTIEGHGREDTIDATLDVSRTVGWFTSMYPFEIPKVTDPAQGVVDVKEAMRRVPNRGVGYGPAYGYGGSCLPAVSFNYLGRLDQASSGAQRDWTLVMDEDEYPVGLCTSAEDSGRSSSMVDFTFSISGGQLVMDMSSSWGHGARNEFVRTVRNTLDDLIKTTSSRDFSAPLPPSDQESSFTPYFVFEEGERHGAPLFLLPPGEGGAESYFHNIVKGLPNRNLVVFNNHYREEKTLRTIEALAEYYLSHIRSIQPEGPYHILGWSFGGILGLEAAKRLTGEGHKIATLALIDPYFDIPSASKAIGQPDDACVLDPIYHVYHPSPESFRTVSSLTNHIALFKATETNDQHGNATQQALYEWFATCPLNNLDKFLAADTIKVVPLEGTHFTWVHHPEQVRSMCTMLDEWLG

Compound	effect on LLD-ACV synthesis (added as a fourth amino acid, concentration not given)	inhibition of ACV-synthetase
NCC(=O)O [glycine]	unaffected	–
orthophosphate	–	inhibit
Fructose-1.6-diphosphate	–	inhibit
glucose-1-phosphate	–	inhibit
